Experimental findings from US20200392181A1, “PEPTIDE COMPOSITIONS AND RELATED METHODS” (Allegro Pharmaceuticals, LLC, priority 2017, published 2020) are described below.

The test concerns ischemia-induced retinal neovascularization. In words: Mouse model of retinopathy of prematurity (ROP), ischemia-induced retinal neovascularization. Particulars: addition of three parts taurine to one part of the peptide. The class given is in vivo, C57BI/6 mice. The protocol: Each test compound was prepared in sterile water for injection, containing 0.08 mg/100 μL of sodium chloride and 0.005 mg/100 μL of trisodium citrate, the concentration of the peptide was at a concentration of 2.0 mg/100 μL and pH=2.7 and dispensed by sterile filtration into sterile vials. The Taurine test compound was obtained from Sigma Aldrich company, which was >99% pure, and prepared the same way as mentioned previously, having a concentration of 3.0 mg/100 μL. […]
To screen the test compounds for activity against ischemia-induced retinal neovascularization, the well-established model of retinopathy of prematurity (ROP) in mice was used. Litters of C57BI/6 mice were placed in 75% oxygen at postnatal day (P) 7, returned to room air at day (P) 12. The Pups were randomly assigned to treatment groups of 4 to 10 animals per group. The pups were treated as follows: Treatment eyes were treated by intravitreal injection of 1.0 microliters of solution containing 20 micrograms of Test Compound.
On post-natal day 17, 5 days after intravitreal injection, the animals were sacrificed, the retinas were flat mounted and the area of neovascularization in each retina was determined by Fluorescein-dextran image analysis. […]

As to “Glycinyl-Arginyl-Glycinyl-Cysteic(Acid)-Threonyl-Proline [ALG-1001]”, the “neovascularization suppressing activity on addition of taurine” value was “improves the neovascularization suppressing activity”.
